Assay results: patent publication US20080108706A1, “Chemical resection of pancreas” (priority 1999, published 2008)
pIC50: −log10 of the molar value. Entries after “also recorded” stand apart in the source; their conditions may differ.

Experiments:
exocrine pancreas = assay: Beagle study Part B: comparison of (R,R)- v. (S,S)-(HO)2DEHSPM; format: in vivo, beagles
Excerpt: (§1) As the pancreatic insufficiency side-effect that was observed after the administration of the (R,R)—(HO)2DEHSPM to the beagles may have been related to the (R,R)-chirality of the molecule, the (S,S)-enantiomer was synthesized and was compared in a head-to-head fashion with the (R,R)-enantiomer. To perform this experiment, five male beagles approximately 6-8 months of age were obtained from Harlan Sprague Dawley. There were provided with food and water ad libitum and were allowed to acclimate to their new surroundings for two weeks. The animals were weighed prior to starting drug administration and were weighed once per week during the drug dosing period. A CBC and chemistry panel and a Holter monitor were performed once per week. In addition to the usual tests, additional pancreatic function-specific tests were also performed. These additional evaluations included a fecal trypsin test, examination of the feces for fecal fat and serum trypsin-like immunoreactivity determinations. It was hoped that these signs of pancreatic insufficiency would only appear in the animals given the (R,R)-enantiomer and would not be observed in the dogs that were given the (S,S)-molecule. The pancreatic insufficiency may not become evident until approximately 7-8 weeks post-drug. At the conclusion of the experiment, all of the animals were sacrificed and the histology and tissue polyamine levels were determined.
Five male beagles approximately 6-8 months of age were obtained from Harlan Sprague Dawley. They were provided with food and water ad libitum and were allowed to acclimate to their new surroundings for two weeks. Once two sets of baseline data were obtained, the animals were randomly divided into three groups: two of the dogs (#468 and 500) received the (R,R)—(HO)2DEHSPM; two of the animals (#440 and 476) were given (S,S)—(HO)2DEHSPM; and one dog (#452) served as an untreated (saline only) control. The dogs were given the (R,R)—or (S,S)—(HO)2DEHSPM at a dose of 4.3 mg/kg/day subcutaneously in divided doses, 2.15 mg/kg BID.
The animals were weighed weekly during the acclimation period, the drug dosing period and throughout the post-drug observational period. A CBC, chemistry panel and pancreatic function tests (trypsin-like immunoreactivity, fecal trypsin, fecal fat, etc.) were performed once per week. Additional tests, e.g., glucose tolerance and fat absorption, were performed as necessary. The dogs were Holter monitored twice during the acclimation period and then weekly during drug dosing.

[1] = system: acinar-derived cell line AR42J; assay: Growth of AR42J cells, IC50 assays; format: cell-based
Experimental: (OH)2 DEHSPM was also tested in the acinar-derived cell line AR42J.

[2] = system: pancreatic native polyamine pools; assay: Tissue drug and native polyamine levels (pancreas, liver) in treated dogs; format: in vivo, beagles
Excerpt: The two dogs (#490 and 494) were fed a prescription canned and dry dog food and were supplemented with Viokase, a pancreatic enzyme preparation, by mixing three tablets with food or by oral administration immediately before each feeding. The dogs were maintained on this regimen for approximately three weeks. During this time, their weight and blood chemistries were closely monitored. The Viokase supplementation was then stopped and the same parameters were again evaluated. One week after the Viokase administration had ceased, the animals were euthanized and tissues were taken for histology and for the determination of tissue polyamine levels.
as §1
• 1. Dogs #468 and 500 were given (R,R)—(HO)2DEHSPM subcutaneously twice daily for 13 days. • 2. They were fed Purina Dog Chow ad libitum and given free access to water. • 3. Polyamine levels in the pancreas were also analyzed at several time points post-drug. • 4. At the start of the experiment, dog #468 weighed 14.4 kg and dog #500 weighed 12.8 kg. The latter animal's weight never exceeded 13.2 kg. At the end of the drug dosing period, dog #468 weighed 13.0 kg, a loss of 1.4 kg; dog #500 weighed 13.2 kg, a gain of 0.4 kg. • 5. […] The pancreatic native polyamine pools (most especially SPD) were markedly diminished compared to untreated control tissue: [SPM]control=3,985 μm v. [SPM10-days post-treatment=2,548 μm (64% of control) [SPD]control=2,820 μm v [SPD]10-days post-treatment=721 μm (25.6% of control) • 6. Dog #468 was bright, alert and responsive until day thirteen of drug administration. […] The dog was fed boiled chicken and rice, as well as Nutrical (a caloric supplement) and cat food and was slowly weaned back to regular dog food. Frank and/or occult blood was found in the dog's stool until about 17-days post-drug. • 7. Dog #500 was bright, alert and responsive throughout the experiment. […] However, stool consistency had normalized by one week post-drug. • 8. […] The inability to digest fats was confirmed when this test was repeated and the fatty meal was supplemented with Viokase (a pancreatic enzyme supplement). […] (2.15 mg/kg every 12 hours) for 13 days • Route: subcutaneously • 1. Dogs #440 and 476 were given (S,S)— (HO)2DEHSPM subcutaneously twice daily for 13 days. • […]. They were fed Purina Dog Chow ad libitum and given free access to water. • 3. At the start of the experiment, dog #440 weighed 11.8 kg.
Two animals were also treated with DEHSPM at a dose equimolar to the (HO)2DEHSPM dosage and sacrificed at 1- and 75-days after the final treatment. […]

[3] = system: human pancreatic cell carcinoma line PANC-1; assay: IC50 assays in PANC-1 cells; format: cell-based
Experimental: (OH)2DEHSPM was tested in a series of IC50 assays in the human pancreatic cell carcinoma line PANC-1 (doubling time 36 hr.).

[4] = 4.3 mg/kg/day sc for 13 days, post-drug
[5] = approximately five weeks post-drug, 4.3 mg/kg/day sc for 13 days
[6] = dog #468, 4.3 mg/kg/day sc for 13 days
[7] = dog #500, 4.3 mg/kg/day sc for 13 days

With `CCNCC[C@@H](O)CNCCCCNC[C@H](O)CCNCC.Cl.Cl.Cl.Cl` [(R,R)-(HO)2DEHSPM, N^1,N^14-Diethyl-3(R) 12(R)-dihydroxyhomospermine tetrahydrochloride] the “histopathology of pancreas at necropsy” value (exocrine pancreas; 4.3 mg/kg/day sc for 13 days, 52- to 64-days post-drug) was “moderate to severe atrophy of the exocrine pancreases”, the alopecia (exocrine pancreas; [4]) was “also noted” and the “diagnosis from pancreatic function tests” value (exocrine pancreas; [4]) was “confirmed a diagnosis of exocrine pancreatic insufficiency”. The “glucose tolerance test (endocrine pancreas)” value (exocrine pancreas; [4]) was ““normal” response”, the “post-feeding serum samples after a fatty meal” value (exocrine pancreas; [4]) was “clear, indicating an inability to digest fats” and the clinical course (exocrine pancreas; 4.3 mg/kg/day sc for 13 days, until euthanasia 52- to 64-days post-drug) was “continued to deteriorate”. For the same compound, the “histology of pancreatic tissue samples” value (exocrine pancreas; 10-days post-drug) was “no histological abnormalities”, the TLI (exocrine pancreas; [5]) was “began to decrease” and the “fecal trypsin test results” value (exocrine pancreas; [5]) was “abnormal”. The body weight (exocrine pancreas; approximately five weeks post-drug, 4.3 mg/kg/day sc for 13 days, both dogs of group) was “began losing weight very rapidly”, the “frank and/or occult blood in stool, found until” value (exocrine pancreas; [6]) was “about 17 days post-drug” and the “loss of body weight at end of drug dosing period” value (exocrine pancreas; [6]) was 1.4 kg. The clinical signs (exocrine pancreas; dog #468, day thirteen of drug administration, 4.3 mg/kg/day sc, 4.3 mg/kg/day) was “bloody diarrhea and anorexia; also recorded: developed bloody diarrhea and stopped eating”, the “blood glucose level in glucose tolerance test” value (exocrine pancreas; dog #468, returned to normal during the 3.5 hours) was “exceeded 160 mg/dl” and the clinical signs (exocrine pancreas; [7]) was “developed bloody diarrhea one-day post-drug”. The “gain of body weight at end of drug dosing period” value (exocrine pancreas; [7]) was 0.4 kg, the “pancreas at necropsy, gross appearance” value (exocrine pancreas; dogs #468 and 500, 52- and 58-days post-drug) was “greatly atrophied (about one-fourth the control weight)” and the pIC50 ([1]; treatment period 4 days (= 1.33 doublings)) was 4.05. For the same compound, the pIC50 ([1]; treatment period 6 days (= 2 doublings)) was 5.92, the pIC50 ([1]; treatment period 12 days (= 4 doublings)) was 7.05 and the “liver concentration of drug (parent+metabolite)” value ([2]; 10-days post-drug) was 500 μm. The “pancreatic concentration of drug (parent+metabolite)” value ([2]; 10-days post-drug) was “exceeded 1,000 μm”, the “[SPD] in pancreas” value ([2]; 10-days post-treatment) was 721 μm and the “[SPD] in pancreas, % of control” value ([2]; 10-days post-treatment) was 25.6 % of control. For the same compound, the “[SPM] in pancreas” value ([2]; 10-days post-treatment) was 2,548 μm, the “[SPM] in pancreas, % of control” value ([2]; 10-days post-treatment) was 64 % of control and the “[SPD] in pancreas” value ([2]; 52-days post-treatment) was 156 μm. The “[SPD] in pancreas, % of control” value ([2]; 52-days post-treatment) was 5.5 % of control, the “[SPM] in pancreas” value ([2]; 52-days post-treatment) was 860 μm and the “[SPM] in pancreas, % of control” value ([2]; 52-days post-treatment) was 21.6 % of control. The “native polyamine levels in pancreas” value ([2]; 75-, 78-, 88- and 92-days post-treatment) was “stabilized, but at a much lower level than the control pancreas”, the “drug remaining in pancreas” value ([2]; 75-, 88- and 92-day post-treatment samples) was “almost completely washed out” and the “total drug concentration (parent+metabolite) in pancreas” value ([2]; at necropsy (52-days post-treatment) vs 10-days post-treatment) was “remained virtually unchanged”. It also gave a pIC50 ([3]; time point 96 hr.) of under 4.00, a pIC50 ([3]; time point 144 hr.) of 6.30 and a pIC50 ([3]; time point 240 hr.) of 6.92.
